Measured values taken from the supplement of paper PMC10307832.

Legend:
Assay in all cases: relative viability (nuclei count vs DMSO), 5 days (fraction); higher = more cells survive
Dasatinib + Phenformin = compound: Cc1nc(Nc2ncc(C(=O)Nc3c(C)cccc3Cl)s2)cc(N2CCN(CCO)CC2)n1 [Dasatinib] + N=C(N)NC(=N)NCCc1ccccc1 [Phenformin] (partner 250 µM)
Method in brief: (§1)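 Lung cancer cell lines were pin-tool dosed in 1536-well plates on the day after seeding, with either a lone drug or a fixed anchor-drug dose plus five library-drug doses (not always all listed) in √10 steps. Nuclei were counted on 4× images after 5 days. Relative viability is the ratio of treated-well to vehicle-well nuclei counts, with each value a median of duplicate plates.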

XMD13-2 + Lapatinib = compound: C1CC1C(=O)NC2=NNC3=C2C=CC(=C3)C4=CC(=CC=C4)C(=O)NC5CC5 [XMD13-2] + CS(=O)(=O)CCNCc1ccc(-c2ccc3ncnc(Nc4ccc(OCc5cccc(F)c5)c(Cl)c4)c3c2)o1 [Lapatinib] (partner 2 µM)
Method in brief: as §1

XMD13-2 + Olaparib = compound: C1CC1C(=O)NC2=NNC3=C2C=CC(=C3)C4=CC(=CC=C4)C(=O)NC5CC5 [XMD13-2] + O=C(c1cc(Cc2n[nH]c(=O)c3ccccc23)ccc1F)N1CCN(C(=O)C2CC2)CC1 [Olaparib] (partner 8 µM)
Method in brief: as §1

ALW-II-49-7 + Lapatinib = compound: Cc1ccc(C(=O)Nc2cccc(C(F)(F)F)c2)cc1Nc1cncc(C(N)=O)c1 [ALW-II-49-7] + CS(=O)(=O)CCNCc1ccc(-c2ccc3ncnc(Nc4ccc(OCc5cccc(F)c5)c(Cl)c4)c3c2)o1 [Lapatinib] (partner 2 µM)
Method in brief: as §1

Row | Cell Line | relative viability (Dasatinib + Phenformin; first compound 0.005 µM) | relative viability (Dasatinib + Phenformin; first compound 0.01581 µM) | relative viability (Dasatinib + Phenformin; first compound 0.05 µM) | relative viability (Dasatinib + Phenformin; first compound 0.1581 µM) | relative viability (Dasatinib + Phenformin; first compound 0.5 µM) | relative viability (XMD13-2 + Lapatinib; first compound 0.05 µM) | relative viability (XMD13-2 + Lapatinib; first compound 0.1581 µM) | relative viability (XMD13-2 + Lapatinib; first compound 0.5 µM) | relative viability (XMD13-2 + Lapatinib; first compound 1.581 µM) | relative viability (XMD13-2 + Lapatinib; first compound 5 µM) | relative viability (XMD13-2 + Olaparib; first compound 0.05 µM) | relative viability (XMD13-2 + Olaparib; first compound 0.1581 µM) | relative viability (XMD13-2 + Olaparib; first compound 0.5 µM) | relative viability (XMD13-2 + Olaparib; first compound 1.581 µM) | relative viability (XMD13-2 + Olaparib; first compound 5 µM) | relative viability (ALW-II-49-7 + Lapatinib; first compound 0.08 µM) | relative viability (ALW-II-49-7 + Lapatinib; first compound 0.253 µM) | relative viability (ALW-II-49-7 + Lapatinib; first compound 0.8 µM) | relative viability (ALW-II-49-7 + Lapatinib; first compound 2.53 µM) | relative viability (ALW-II-49-7 + Lapatinib; first compound 8 µM)
1 | NCI-H1623 | 0.568 | 0.564 | 0.526 | 0.413 | 0.349 |  |  |  |  |  |  |  |  |  |  |  |  |  |  | 
2 | HCC-827 | 0.411 | 0.362 | 0.328 | 0.293 | 0.104 | 0.19 | 0.2 | 0.172 | 0.243 | 0.2 | 0.722 | 0.661 | 0.575 | 0.609 | 0.421 | 0.17 | 0.237 | 0.189 | 0.178 | 0.175
3 | NCI-H322M | 0.604 | 0.61 | 0.443 | 0.206 | 0.195 | 0.641 | 0.528 | 0.593 | 0.605 | 0.724 | 0.807 | 0.848 | 0.553 |  | 1.04 | 0.592 | 0.583 | 0.613 | 0.635 | 0.556
4 | ChaGo-K-1 | 0.546 | 0.463 | 0.41 | 0.442 | 0.377 |  |  |  |  |  | 0.439 | 0.436 | 0.438 | 0.387 | 0.358 |  |  |  |  | 
5 | BEN | 0.249 | 0.213 | 0.249 | 0.241 | 0.206 | 0.954 | 0.829 | 0.802 | 0.597 | 0.621 | 0.925 | 0.94 | 0.941 | 1.12 | 0.995 | 0.721 | 0.814 | 0.649 |  | 0.629
